Legend:
laccase = experiment: Chicago Blue assay: mediator-enhanced laccase-catalyzed bleaching of Chicago Blue in solution; assay type: biochemical, Aspergillus; conditions: decrease in absorbance of Chicago Blue at 610 nm after 3 min, mediator (0.1 umole/ml); for ΔmA610 (3 min) at pH 5.5: pH 5.5, laccase; for ΔmA610 (3 min) at pH 7.0: pH 7.0, laccase
Experimental: In this example, the pro-oxidants and pro-degradants were tested individually as mediators to enhance laccase-catalyzed bleaching of Chicago Blue in solution. The Chicago Blue Dye, also known as Direct Blue 1 or DB1, is a commonly used assay for the oxidative efficiency of laccase. The Chicago Blue Dye is fully described by Schneider et al. in U.S. Pat. No. 5,885,304, which is hereby incorporated by reference.
Each of the compounds (i.e., potential mediators) was dissolved in water, or in ethanol if the potential mediator was not water soluble, and then mixed with a phosphate buffer and a Chicago Blue solution. A solution of a laccase was added to make up 1 ml of the final solution, containing […] mediator, 20 mM buffer at pH 5.5 or 7.0, 0.1-1% laccase (v/v) and Chicago Blue solution, with absorbance at A610 nm between 0.6 to 0.8. The change in the absorbance at A610 nm was measured immediately using a UV-VIS spectrophotometer (UV-1201, Shimadzu Scientific Instruments) after the enzyme was added. The decrease in absorbance was recorded at 30-second intervals for 5 minutes and was used to estimate the efficiency of the mediator.

laccase (NS51003) = experiment: Pulp bleaching with laccase and mediators, delignification measured as change in Kappa number (TAPPI T236 cm-85); design: species or system Aspergillus
Experimental: Delignification of the pulp was measured as the change in Kappa number according to TAPPI method T236 cm-85. Briefly, a known mass of paper pulp (containing lignin) was reacted with an excess of potassium permanganate in acid solution for a specified period of time to oxidize the lignin. After the reaction, the residual permanganate was determined by titration. The Kappa number was defined as the volume (ml) of 0.1N potassium permanganate consumed by 1 g of moisture-free pulp in 0.5N sulfuric acid after a ten-minute reaction time at 25° C. under conditions such that one-half of the permanganate remains unreacted. A linear relationship with the lignin content of the pulp and the measurement of the Kappa number has been done on samples as low as 300 mg of pulp.
A softwood Kraft pulp, Kappa number 31.0, was treated with a laccase (NS51003) under the following conditions:
The dried pulp was added to 80 ml of 50 mM phosphate, pH 5.5, and disintegrated in a blender. The pulp was then transferred to a 500-ml conical flask and the blender was washed with 20 ml of the same buffer. The washed buffer and the pulp were combined. The mediator was added at 1-4% (w/w, based on the dry pulp) followed by the addition of the laccase. The pH of the pulp mixture was adjusted to 5.5 if needed. […]
The delignification of the pulp was measured as the change in the Kappa number according to TAPPI method T236 cm-85.

Structure (SMILES)	ΔmA610 (3 min) at pH 5.5 (laccase)	ΔmA610 (3 min) at pH 7.0 (laccase)	activity in enhancing bleaching (in words) (laccase (NS51003); pulp bleaching with laccase, Examples 2-6)	Kappa number reduction (in words) (laccase (NS51003); 0.1 ml of the 51003 laccase with the mediator)
O=C(O)c1cccnc1 [Nicotinic acid, nicotinic acid]	0	0		
NC(N)=O [Urea, urea]	1	0	barely active	
On1nnc2ccccc21 [HBT, 1-hydroxybenzotriazole, reference compound]				modest Kappa number reduction
O=C(O)c1ccccc1O [Salicylic acid, salicylic acid]	11			
O=C1O[C@H]([C@@H](O)CO)C(O)=C1O [Ascorbic acid, ascorbic acid]	6	2		

Reference: patent US20030094251A1, “Enhancing laccase activity using pro-oxidants and pro-degradants” (priority 2001, published 2003)
